From patent US9682941B2, “Substituted biphenyl analogues as dual inhibitors of aromatase and sulfatase” (ESTRYX PHARMA LIMITED, priority 2013, dated 2017)

Key:
[1] = target: T1, aromatase (Homo sapiens, UniProt P11511); assay: Aromatase inhibition assay in JEG-3 cells ([1β-3H] androstenedione, tritiated water release); assay type: cell-based; conditions: 1.25 hour incubation, duplicate
T1 construct: JEG-3 which constitutively expresses high amount of aromatase and steroid sulfatase; endogenous in cells; host or cells: JEG-3
T1 sequence (P11511 1-503): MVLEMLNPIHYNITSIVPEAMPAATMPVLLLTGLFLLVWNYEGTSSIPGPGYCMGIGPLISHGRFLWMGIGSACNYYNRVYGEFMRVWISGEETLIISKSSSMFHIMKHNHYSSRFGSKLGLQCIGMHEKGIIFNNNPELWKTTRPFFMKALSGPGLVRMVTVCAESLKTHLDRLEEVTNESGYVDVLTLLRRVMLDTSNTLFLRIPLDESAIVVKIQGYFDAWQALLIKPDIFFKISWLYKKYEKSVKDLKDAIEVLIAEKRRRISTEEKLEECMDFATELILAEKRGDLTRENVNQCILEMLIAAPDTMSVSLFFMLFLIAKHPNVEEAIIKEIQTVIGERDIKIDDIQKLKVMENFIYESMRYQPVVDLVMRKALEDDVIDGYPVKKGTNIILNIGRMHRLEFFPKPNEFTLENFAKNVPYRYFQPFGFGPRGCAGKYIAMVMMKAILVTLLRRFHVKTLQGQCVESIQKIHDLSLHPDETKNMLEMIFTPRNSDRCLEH
Description: (§1) Aromatase and steroid sulfatase enzymes inhibitions were evaluated in the human chorionic carcinoma cell line JEG-3 which constitutively expresses high amount of aromatase and steroid sulfatase.
For aromatase inhibition assay, JEG-3 cells were seeded into 96-well plates at 35,000 cells/well and maintained in MEM containing supplements. When reaching 80% confluent, the cells were washed once with serum-free MEM, incubated with [1β-^3H] androstenedione (A4, 0.2 μCi/ml) for 1.25 hour in the presence of the test substances added in a concentration series. The product, tritiated water (^3H2O), was separated using 2.5% (w/v) dextran-coated charcoal at 4-8° C. for 2 hours. The supernatant radioactivity was measured by a MicroBeta scintillation counter.
(§2) Experiments are performed in duplicate. The inhibitory concentration of 50% of the enzymatic activity is calculated.

[2] = target: T2, steroid sulfatase (Homo sapiens, UniProt P08842); assay: Steroid sulfatase (STS) inhibition assay in JEG-3 cells ([6,7-3H] estrone sulfate); assay type: cell-based; conditions: 1 hour at 37° C., duplicate
T2 construct: JEG-3 which constitutively expresses high amount of aromatase and steroid sulfatase; endogenous in cells; host or cells: JEG-3
T2 sequence (P08842 22-583): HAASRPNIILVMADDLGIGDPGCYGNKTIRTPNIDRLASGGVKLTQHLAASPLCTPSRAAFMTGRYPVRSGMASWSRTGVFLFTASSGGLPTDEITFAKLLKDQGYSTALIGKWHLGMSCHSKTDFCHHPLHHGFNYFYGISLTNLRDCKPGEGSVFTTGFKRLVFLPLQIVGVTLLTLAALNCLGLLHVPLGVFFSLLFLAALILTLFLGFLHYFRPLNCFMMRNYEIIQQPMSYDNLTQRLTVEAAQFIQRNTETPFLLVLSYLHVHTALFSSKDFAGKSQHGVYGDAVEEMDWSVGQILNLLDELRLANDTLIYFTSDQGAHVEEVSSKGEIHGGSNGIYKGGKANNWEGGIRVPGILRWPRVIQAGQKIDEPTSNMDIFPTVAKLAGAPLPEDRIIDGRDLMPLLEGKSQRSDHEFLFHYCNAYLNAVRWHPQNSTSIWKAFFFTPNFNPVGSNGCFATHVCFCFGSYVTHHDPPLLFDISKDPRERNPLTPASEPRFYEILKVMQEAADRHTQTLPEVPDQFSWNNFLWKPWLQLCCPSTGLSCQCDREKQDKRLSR
Description: as §1
For STS assay, JEG-3 cells were seeded into 24-well culture plates at 150,000 cells/ml/well and maintained in MEM containing supplements overnight. When reaching 80% confluent, the cells were washed once with serum-free MEM, loaded with 1 ml of substrate mix containing [6,7-3H] Estrone sulfate (E1S, 0.6 μCi/ml) and [4-14C] Estrone (E1, 4 nCi/ml) in the presence of compounds in a concentration series, and incubated for 1 hour at 37° C. The product [3H]E1 was separated from E1S by toluene partition using [4-14C]E1 to monitor extraction procedural losses, and the toluene fraction radioactivity was measured by a MicroBeta scintillation counter.
as §2

[3] = target: T3, CYP1A2 (Homo sapiens, UniProt P05177); assay: Cytochrome P450 inhibition, human recombinant CYP1A2; assay type: in vitro ADME; conditions: recombinant human CYP, 15 minutes, 37° C.
T3 sequence (P05177 1-516): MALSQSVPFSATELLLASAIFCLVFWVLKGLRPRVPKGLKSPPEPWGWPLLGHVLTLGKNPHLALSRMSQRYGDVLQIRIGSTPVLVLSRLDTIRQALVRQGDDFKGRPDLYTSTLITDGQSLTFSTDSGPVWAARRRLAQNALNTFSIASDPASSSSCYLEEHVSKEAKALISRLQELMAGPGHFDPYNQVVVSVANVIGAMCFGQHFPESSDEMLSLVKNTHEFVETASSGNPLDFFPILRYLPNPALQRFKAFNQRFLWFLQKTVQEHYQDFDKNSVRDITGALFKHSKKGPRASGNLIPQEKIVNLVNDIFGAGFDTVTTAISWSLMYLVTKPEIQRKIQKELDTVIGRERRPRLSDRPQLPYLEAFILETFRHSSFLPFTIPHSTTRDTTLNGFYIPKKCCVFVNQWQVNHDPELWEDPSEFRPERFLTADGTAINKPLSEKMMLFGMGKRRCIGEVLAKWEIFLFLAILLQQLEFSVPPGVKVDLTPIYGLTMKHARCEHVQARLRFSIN
Description: (§3) Inhibitory activity of the compounds towards CYP1A2, 2C9, 2C19, 2D6, and 3A4 was evaluated using human recombinant CYPs. Test compounds and reference inhibitors were initially prepared from their stock solutions in a mixture solvent of DMSO/ACN (10/90) at a concentration of 200-fold of the final. A 3-fold serial dilution (1/3, 1/9, 1/27 etc.) was made in the DMSO/ACN mixture solvent to generate 7 consecutive concentrations. The serially diluted solutions of test compounds and reference inhibitors (positive controls) were further diluted directly in recombinant human CYP enzymes in assay buffer (0.1 M potassium phosphate buffer, pH7.4) to reach the concentration of 2-fold of the final (2×). Aliquots of 30 μL of 2× compound/enzyme solutions were loaded to a 96-well assay plates and preincubated at 37° C. for 10 minutes. An aliquot of 15 μL of prewarmed 4× substrate solutions made in the assay buffer was added into each of the wells containing the 2× compound/enzyme mixtures. Finally, the reaction was initiated by adding an aliquot of 15 μL of 4×NADPH made in the assay buffer and the assay plates were further incubated at 37° C. for a time period designated for each isoform (5 minutes for 3A4, 20 minutes for 2C9, 10 minutes for 2D6 and 2C19, and 15 minutes for 1A2). The reactions were stopped by adding 120 μL ACN containing the stable isotopes of the metabolites for corresponding CYP isoforms, followed by vortexing for 5 minutes and centrifugation at 4000 rpm for 15 minutes. The resulting supernatants were transferred into new 96-well plates for LC-MS/MS analysis. Experiments are performed in duplicate. The inhibitory concentration of 50% of the enzymatic activity is calculated.

[4] = target: CYP2C9 (Homo sapiens, UniProt P11712); assay: Cytochrome P450 inhibition, human recombinant CYP2C9; assay type: in vitro ADME; conditions: recombinant human CYP, 20 minutes, 37° C.
CYP2C9, sequence (P11712 whole entry): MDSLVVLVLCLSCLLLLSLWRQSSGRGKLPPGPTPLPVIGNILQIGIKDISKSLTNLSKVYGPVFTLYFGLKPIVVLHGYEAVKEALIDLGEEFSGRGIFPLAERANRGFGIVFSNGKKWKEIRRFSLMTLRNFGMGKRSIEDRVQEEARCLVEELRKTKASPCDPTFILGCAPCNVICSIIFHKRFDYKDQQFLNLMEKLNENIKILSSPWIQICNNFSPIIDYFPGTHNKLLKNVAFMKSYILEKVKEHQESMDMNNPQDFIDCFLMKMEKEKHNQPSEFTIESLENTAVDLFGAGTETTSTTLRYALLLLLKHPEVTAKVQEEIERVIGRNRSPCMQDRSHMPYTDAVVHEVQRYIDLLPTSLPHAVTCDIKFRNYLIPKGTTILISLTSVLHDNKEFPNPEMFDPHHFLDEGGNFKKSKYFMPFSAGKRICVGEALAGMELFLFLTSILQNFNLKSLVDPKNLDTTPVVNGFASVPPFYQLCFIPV
Description: as §3

[5] = target: CYP2C19 (Homo sapiens, UniProt P33261); assay: Cytochrome P450 inhibition, human recombinant CYP2C19; assay type: in vitro ADME; conditions: recombinant human CYP, 10 minutes, 37° C.
CYP2C19, sequence (P33261 whole entry): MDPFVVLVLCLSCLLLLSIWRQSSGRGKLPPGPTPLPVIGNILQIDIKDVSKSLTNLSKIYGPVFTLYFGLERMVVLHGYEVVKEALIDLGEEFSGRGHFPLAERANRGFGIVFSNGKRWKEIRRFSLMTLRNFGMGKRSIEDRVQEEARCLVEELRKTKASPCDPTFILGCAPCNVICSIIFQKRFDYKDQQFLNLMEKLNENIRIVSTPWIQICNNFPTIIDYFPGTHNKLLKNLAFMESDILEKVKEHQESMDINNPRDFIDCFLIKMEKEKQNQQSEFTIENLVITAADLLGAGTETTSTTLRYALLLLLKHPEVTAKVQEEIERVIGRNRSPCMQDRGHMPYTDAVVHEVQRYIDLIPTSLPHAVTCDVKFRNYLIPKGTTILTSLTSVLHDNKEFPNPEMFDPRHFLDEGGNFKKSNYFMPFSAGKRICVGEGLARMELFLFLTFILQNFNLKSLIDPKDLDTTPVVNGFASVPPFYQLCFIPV
Description: as §3

[6] = target: CYP2D6 (Homo sapiens, UniProt P10635); assay: Cytochrome P450 inhibition, human recombinant CYP2D6; assay type: in vitro ADME; conditions: recombinant human CYP, 10 minutes, 37° C.
CYP2D6, sequence (P10635 whole entry): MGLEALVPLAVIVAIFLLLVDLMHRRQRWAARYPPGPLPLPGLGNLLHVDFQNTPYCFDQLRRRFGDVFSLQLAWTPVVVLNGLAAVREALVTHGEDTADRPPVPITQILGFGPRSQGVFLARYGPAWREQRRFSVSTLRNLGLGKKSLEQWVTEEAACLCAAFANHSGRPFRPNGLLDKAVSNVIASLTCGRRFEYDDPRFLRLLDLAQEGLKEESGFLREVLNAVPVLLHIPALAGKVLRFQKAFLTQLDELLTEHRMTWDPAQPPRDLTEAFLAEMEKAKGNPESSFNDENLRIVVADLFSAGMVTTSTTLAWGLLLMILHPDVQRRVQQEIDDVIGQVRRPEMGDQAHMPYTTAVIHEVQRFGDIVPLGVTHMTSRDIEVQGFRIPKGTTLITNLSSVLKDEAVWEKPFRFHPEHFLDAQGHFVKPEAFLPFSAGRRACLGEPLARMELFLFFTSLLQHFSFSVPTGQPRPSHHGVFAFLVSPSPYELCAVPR
Description: as §3

[7] = target: CYP3A4 (Homo sapiens, UniProt P08684); assay: Cytochrome P450 inhibition, human recombinant CYP3A4; assay type: in vitro ADME; conditions: recombinant human CYP, 5 minutes, 37° C.
CYP3A4, sequence (P08684 whole entry): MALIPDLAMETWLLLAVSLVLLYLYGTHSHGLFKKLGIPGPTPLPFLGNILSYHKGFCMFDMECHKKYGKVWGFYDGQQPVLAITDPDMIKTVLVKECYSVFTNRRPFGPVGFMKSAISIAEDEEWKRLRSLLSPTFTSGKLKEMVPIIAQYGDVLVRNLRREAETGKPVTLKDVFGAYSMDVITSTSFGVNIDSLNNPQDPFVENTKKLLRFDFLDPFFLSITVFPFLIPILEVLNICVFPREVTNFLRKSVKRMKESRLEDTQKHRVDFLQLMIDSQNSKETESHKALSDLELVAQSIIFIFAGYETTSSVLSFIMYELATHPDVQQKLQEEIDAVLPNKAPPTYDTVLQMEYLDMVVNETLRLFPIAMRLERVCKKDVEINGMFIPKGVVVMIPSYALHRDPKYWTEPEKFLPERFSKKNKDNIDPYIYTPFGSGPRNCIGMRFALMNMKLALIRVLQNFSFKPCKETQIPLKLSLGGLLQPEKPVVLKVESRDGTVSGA
Description: as §3

Row | SMILES | IC50 [1] | IC50 [2] | IC50 [3] | IC50 [4] | IC50 [5] | IC50 [6] | IC50 [7]
1 | N#Cc1ccc(Cn2cnc3cc(F)c(F)cc32)cc1-c1ccc(OS(N)(=O)=O)cc1 [Example 24, 2′-Cyano-5′-((5,6-difluoro-1H-benzo[d]imidazol-1-yl)methyl)biphenyl-4-yl sulfamate] | 0.9 nM | 2 nM | > 5000 nM | > 5000 nM | > 5000 nM | > 5000 nM | 3260 nM
2 | N#Cc1cnc(Nn2cnc3ccccc32)cc1-c1ccc(OS(N)(=O)=O)cc1 [Example 26, 4-(2-(1H-Benzo[d]imidazol-1-ylamino)-5-cyanopyridin-4-yl)phenyl sulfamate] | 2.7 nM | 11.8 nM | > 5000 nM | > 5000 nM | > 5000 nM | > 5000 nM | 2540 nM
3 | N#Cc1cnc(Cn2cnc3ccccc32)nc1-c1ccc(OS(N)(=O)=O)cc1 [Example 9, 4-(2-((1H-Benzo[d]imidazol-1-yl)methyl)-5-cyanopyrimidin-4-yl)phenyl sulfamate] | 3.5 nM | 1.8 nM | > 5000 nM | > 5000 nM | > 5000 nM | > 5000 nM | 3680 nM
4 | N#Cc1ccc(Cn2cnc3cccnc32)cc1-c1ccc(OS(N)(=O)=O)cc1 [Example 12, 5′-((3H-Imidazo[4,5-b]pyridin-3-yl)methyl)-2′-cyano-[1,1′-biphenyl]-4-yl sulfamate] | 0.5 nM | 7 nM | – | – | – | – | –
5 | N#Cc1cnc(Cn2cnc3ccccc32)cc1-c1ccc(OS(N)(=O)=O)cc1 [Example 17, 4-(2-((1H-Benzo[d]imidazol-1-yl)methyl)-5-cyanopyridin-4-yl)phenyl sulfamate] | 2.2 nM | 3.9 nM | > 5000 nM | > 5000 nM | > 5000 nM | > 5000 nM | > 5000 nM
6 | N#Cc1ccc(Nn2cnc3ccccc32)nc1-c1ccc(OS(N)(=O)=O)cc1 [Example 22, 4-(6-(1H-Benzo[d]imidazol-1-ylamino)-3-cyanopyridin-2-yl)phenyl sulfamate] | 3.7 nM | 6 nM | > 5000 nM | > 5000 nM | > 5000 nM | > 5000 nM | > 5000 nM

The remaining lines, values ahead:

Row | IC50 [1] | IC50 [2] | IC50 [3] | IC50 [4] | IC50 [5] | IC50 [6] | IC50 [7] | SMILES
7 | 4.6 nM | 10.5 nM | > 5000 nM | > 5000 nM | > 5000 nM | > 5000 nM | > 5000 nM | N#Cc1ncc(Cn2cnc3ccccc32)cc1-c1ccc(OS(N)(=O)=O)cc1 [Example 31, 4-(5-((1H-Benzo[d]imidazol-1-yl)methyl)-2-cyanopyridin-3-yl)phenyl sulfamate]
8 | 2 nM | 10.5 nM | > 5000 nM | > 5000 nM | > 5000 nM | > 5000 nM | > 5000 nM | N#Cc1cnc(Cn2cnc3cccnc32)cc1-c1ccc(OS(N)(=O)=O)cc1 [Example 36, 4-(2-((3H-Imidazo[4,5-b]pyridin-3-yl)methyl)-5-cyanopyridin-4-yl)phenyl sulfamate]
9 | 5.8 nM | > 60 nM | – | – | – | – | – | CSc1ccc(-c2cc(N(C)n3cnc4ccccc43)ccc2C#N)cc1OS(N)(=O)=O [Example 28, 5′-((1H-Benzo[d]imidazol-1-yl)(methyl)amino)-2′-cyano-4-(methylthio)-[1,1′-biphenyl]-3-yl sulfamate]
10 | 2 nM | 9.3 nM | – | – | – | – | – | N#Cc1ccc(Nn2cnc3ccccc32)cc1-c1ccc(OS(N)(=O)=O)cn1 [Example 41, 6-(5-(1H-Benzo[d]imidazol-1-ylamino)-2-cyanophenyl)pyridin-3-yl sulfamate]
11 | 5.1 nM | 29.4 nM | – | – | – | – | – | N#Cc1ccc(Nn2nnc3cccnc32)cc1-c1ccc(OS(N)(=O)=O)cc1 [Example 35, 5′-(3H-[1,2,3]Triazolo[4,5-b]pyridin-3-ylamino)-2′-cyano-[1,1′-biphenyl]-4-yl sulfamate]
